Results: PMC10609741 (Pharmaceutics, 2023)
Values after ≈ are worked out from the molar mass of the structure shown.

Assays:
[1] = tested on: Swiss albino mice; experiment: Tail-flick test; type: in vivo; conditions: oral gavage
Experimental: (§1) The tests were performed using Swiss albino mice (25–30 g) which were divided in groups of eight mice each.
The tail-flick test measures the reflex latency after exposure to a heating source, in order to evaluate the spinal response to pain. The tail flick unit (37360; UgoBasile, Gemonio, Italy) directs heat and stimulates the distal part of the mouse tail. The tail-flick latency is defined as the period before the mouse removed its tail from heat stimuli. The pain response at onset and at 1, 2, 3, and 4 h after administration of drugs, was noted. To prevent tissue lesions, the experiment cut-off time was set at 12 s. The pain inhibition (%) was calculated for each tested compound/β-CD complex and for each group the mean value (±S.E.) was reported.

[2] = Solubility of the ibuprofen derivative in water in the absence of β-CD (S0), UV 226 nm; type: physicochemical; conditions: water without β-CD, 25 °C, from calibration curves
Experimental: (§2) Stock solutions of β-CD were prepared in the concentration range of 0–15 mmol/L. From each stock solution 1 mL was taken and introduced into thermomixer flasks and 1 mL of suprasaturated solution of 4b, 4g, 4k, 4m was added and stirred at 600 rpm at 25 °C for 24 h, then at 60 °C for 24 h, and finally left to rest, at 25 °C, for another 24 h. UV absorbance was monitored within 190–320 nm on extracts freshly diluted with deionized water, and the maximum wavelength of 226 nm was selected for solubility determinations. All measurements were made in triplicate.

[3] = Phase solubility study with β-CD (apparent solubility constant K1:1); type: physicochemical; conditions: 1:1 complex, K1:1 = Slope/S0(1−Slope); β-CD 0–15 mmol/L
Experimental: as §2

[4] = tested on: Swiss albino mice; experiment: Hot-plate test; type: in vivo; conditions: oral gavage; for pain inhibition: after 4 h
Experimental: as §1
A hot-plate test was performed using a hot plate apparatus (DS 37; UgoBasile). The plate was set at 55 ± 0.1 °C and the response latency was noted as the interval between placing the animal on the plate and the occurrence of licking, shaking of the hind paws, or jumping off the surface. The latency of the analgesic response was measured at onset and at 1, 2, 3, and 4 h. The experiment cut-off time was set to 15 s to prevent tissue damage. For each group, the mean value (±S.E.) was reported.

[5] = tested on: Swiss albino mice; experiment: Acetic acid writhing test; type: in vivo; conditions: acetic acid 1% i.p. 4 h after oral administration, writhes counted over 30 min
Experimental: as §1
To determine visceral pain, a writhing test was used. […] The mice were placed in a large glass cylinder and the number of abdominal writhes was recorded over a period of 30 min. The inhibition (%) of writhings was calculated to ascertain the analgesic effect. For each group, the mean value (±S.E.) was reported.

[6] = tested on: Swiss albino mice; experiment: Paw formalin test; type: in vivo; conditions: formalin 5% 4 h after oral administration
Experimental: as §1
The analgesic and anti-inflammatory effects of the compounds were evaluated using formalin assay. […] The time (s) that the mice spent licking and/or biting the injected paw was recorded. Depending on the time value, the pain can be classified as neurogenic pain (0 to 5 min), interphase pain (5 to 15 min), and inflammatory pain (15 to 30 min). For each group, the mean value (±S.E.) was reported.

[7] = 1/20 of LD50, maximum after 2 h

SMILES | pain inhibition, maximum effect [1, 7] | solubility [2] | apparent solubility constant (K1:1) in the presence of β-CD [3] | pain inhibition [4] | inhibition of writhings [5] | pain inhibition, maximum effect ([1]; 1/20 of LD50, maximum at 3 h) | time mice spent licking the formalin-injected paw, first phase ([6]; first phase 0–5 min, neurogenic pain) | time mice spent licking the formalin-injected paw, second phase ([6]; second phase 15–30 min, inflammatory pain) | time of maximum analgesic effect ([4]; 1/20 of LD50)
CC(C)Cc1ccc(C(C)C(=O)NN2C(=O)CSC2c2ccc([N+](=O)[O-])cc2)cc1 (centres unmarked) [4g] | 24.90% | 15 µg/mL (≈ 35.1 µM) | 723.50 mol⁻¹ | – | – | – | – | – | –
CC(C)Cc1ccc(C(C)C(=O)[O-])cc1.[Na+] (centres unmarked) [Ibu-Na, Ibuprofen sodium, reference compound] | – | – | – | 47.22% | 55.65% | 45.86% | 59.50 s | 32 s | –
CC(C)Cc1ccc(C(C)C(=O)NN2C(=O)CSC2c2ccc(C#N)cc2)cc1 (centres unmarked) [4k] | – | 22.8 µg/mL (≈ 55.9 µM) | 713.6510 mol⁻¹ | 63.03% | 58.60% | 32.01% | – | – | –
CC(C)Cc1ccc(C(C)C(=O)NN2C(=O)CSC2c2ccc(Cl)cc2)cc1 (centres unmarked) [4b] | 25.54% | 9.21 µg/mL (≈ 22.1 µM) | 771.81 mol⁻¹ | 58.93% | – | – | – | – | –
CC(C)Cc1ccc(C(C)C(=O)NN2C(=O)CSC2c2ccc(N)cc2)cc1 (centres unmarked) [4m] | – | 38.1 µg/mL (≈ 95.9 µM) | – | – | – | 44.19% | – | – | 3 h
